In patent publication US20140171431A1, “AZOLE HETEROCYCLIC COMPOUND, PREPARATION METHOD, PHARMACEUTICAL COMPOSITION AND USE” (priority 2011, published 2014) one finds inhibition data, which are given here for 13 molecules.

Read-outs that look alike come from different tables or passages of the source. A value given as a limit tells only on which side of the number the result lay.

One test addresses T1, Lp-PLA2 in rabbit serum (Oryctolagus cuniculus, UniProt G1SE06).
T1 construct: from tissue; host or cells: rabbit serum
T1 sequence (G1SE06 22-423): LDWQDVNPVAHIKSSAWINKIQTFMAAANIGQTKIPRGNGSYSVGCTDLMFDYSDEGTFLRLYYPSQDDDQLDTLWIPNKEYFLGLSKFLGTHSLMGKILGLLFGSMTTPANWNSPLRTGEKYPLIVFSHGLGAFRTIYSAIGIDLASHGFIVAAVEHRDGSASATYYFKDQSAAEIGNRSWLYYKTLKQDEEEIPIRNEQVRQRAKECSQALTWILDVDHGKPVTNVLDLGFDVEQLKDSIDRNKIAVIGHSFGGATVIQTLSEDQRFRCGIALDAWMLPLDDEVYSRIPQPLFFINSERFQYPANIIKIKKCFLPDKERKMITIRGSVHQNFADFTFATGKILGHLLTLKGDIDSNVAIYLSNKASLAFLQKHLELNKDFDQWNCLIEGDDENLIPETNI
Briefly: In vitro inhibitory activity towards the enzyme Lp-PLA2 in rabbit serum, [3H]PAF substrate. It counts as biochemical. To be noted: for inhibition at 0.1 µM: 100 nM.

In the next test the target is T2, Lp-PLA2 in human serum (Homo sapiens, UniProt Q13093).
T2 construct: from tissue
T2 sequence (Q13093 22-441): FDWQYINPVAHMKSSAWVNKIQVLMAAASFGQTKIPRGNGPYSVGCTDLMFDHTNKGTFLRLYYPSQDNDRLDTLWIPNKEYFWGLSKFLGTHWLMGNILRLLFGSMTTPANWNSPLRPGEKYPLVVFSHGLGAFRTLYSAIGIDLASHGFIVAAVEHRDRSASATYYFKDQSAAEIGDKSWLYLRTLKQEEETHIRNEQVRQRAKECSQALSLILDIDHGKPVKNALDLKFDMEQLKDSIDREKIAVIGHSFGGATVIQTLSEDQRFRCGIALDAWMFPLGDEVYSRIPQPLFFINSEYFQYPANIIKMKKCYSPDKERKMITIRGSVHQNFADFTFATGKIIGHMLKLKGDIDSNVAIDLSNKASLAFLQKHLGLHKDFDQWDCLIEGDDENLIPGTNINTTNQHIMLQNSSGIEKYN
The test can be described thus: In vitro inhibitory activity towards the enzyme Lp-PLA2 in human serum, [3H]PAF substrate. It counts as biochemical. To be noted: for inhibition at 0.01 µM: 10 nM; for inhibition at 0.1 µM: 100 nM. How it is done:
The activities of compounds were measured using [^3H] labeled platelet activating factor ([^3H]PAF, Perkinelmer, Lot NET910) as the substrate. The reaction was carried out in a system containing 50 mmol/l HEPES and 150 mmol/l NaCl (pH 7.4) in a total volume of 200 μl. First, 10 μL human plasma and 10 μl DMSO solution of the test compound were added to the system and preincubated for 10 min at 37° C. Then 20 nM [^3H]PAF was added as listed in table 1 to start the reaction and incubated for a further 10 min at 37° C. After that, 600 μl of CHCl3/MeOH (2:1) was added and the resulting mixture was mixed with vortex. After settled for a while, the mixture was centrifugated at 12000×g for 15 min. The supernatant was transferred to a new tube and 200 μl of CHCl3 was added and mixed by vortexing. The mixture was settled or centrifugated for 2 min. A 100 μl portion of the supernatant was then collected for radioactivity intensity measurement.

The mark [1] stands for this setting: rabbit serum, read-out: inhibition, %.
Setting [2] is: human serum, read-out: inhibition, %.
[3] abbreviates: read-out: inhibitory rate towards the rabbit serum derived Lp-PLA2 enzyme.
[4] abbreviates: read-out: inhibitory rate towards the human serum derived Lp-PLA2 enzyme.

As to `Cc1nnc(Cn2cc(Cc3cnn(C)c3)c(=O)nc2SCc2ccc(F)cc2)n1Cc1ccc(-c2ccc(C(F)(F)F)cc2)cc1` [Example 65, 2-(4-fluorobenzylthio)-5-((1-methyl-1H-pyrazol-4-yl)methyl)-1-((5-methyl-4-((4′-(trifluoromethyl)biphenyl-4-yl)methyl)-4H-1,2,4-triazol-3-yl)methyl)pyrimidin-4(1H)-one], the inhibition at 0.1 µM on Lp-PLA2 in rabbit serum (setting [1]) stood at 60%; against Lp-PLA2 in human serum (human serum), 96%. Further, the inhibition at 0.01 µM on Lp-PLA2 in human serum (setting [2]) is 82%.
Taken in the same sequence, the figures for `CCCc1nnc(Cn2c(SCc3ccc(F)cc3)nc(=O)c3c2CCC3)n1Cc1ccc(-c2ccc(C(F)(F)F)cc2)cc1` [Example 66, 2-(4-fluorobenzylthio)-1-((5-propyl-4-((4′-(trifluoromethyl)biphenyl-4-yl)methyl)-4H-1,2,4-triazol-3-yl)methyl)-6,7-dihydro-1H-cyclopenta[d]pyrimidin-4(5H)-one] were 88%, 98% and 88%.
Turning to `CC(C)c1nnc(Cn2c(SCc3ccc(F)cc3)nc(=O)c3c2CCC3)n1Cc1ccc(-c2ccc(C(F)(F)F)cc2)cc1` [Example 67, 2-(4-fluorobenzylthio)-1-((5-isopropyl-4-((4′-(trifluoromethyl)biphenyl-4-yl)methyl)-4H-1,2,4-triazol-3-yl)methyl)-6,7-dihydro-1H-cyclopenta[d]pyrimidin-4(5H)-one], the inhibition at 0.1 µM on Lp-PLA2 in rabbit serum (setting [1]) is 91%; at Lp-PLA2 in rabbit serum (setting [3]), more than 90%; on Lp-PLA2 in human serum (human serum), 98%. In addition, the inhibition at 0.01 µM is 92% on Lp-PLA2 in human serum (setting [2]) and more than 80% on Lp-PLA2 in human serum (setting [4]).
As for `O=c1nc(SCc2ccc(F)cc2)n(Cc2nnc(C3CC3)n2Cc2ccc(-c3ccc(C(F)(F)F)cc3)cc2)c2c1CCC2` [Example 68, 1-((5-cyclopropyl-4-((4′-(trifluoromethyl)biphenyl-4-yl)methyl)-4H-1,2,4-triazol-3-yl)methyl)-2-(4-fluorobenzylthio)-6,7-dihydro-1H-cyclopenta[d]pyrimidin-4(5 H)-one], the inhibition at 0.1 µM on Lp-PLA2 in rabbit serum (setting [1]) was 34%; against Lp-PLA2 in human serum (human serum), 97%. The molecule also gave an inhibition at 1 µM against Lp-PLA2 in rabbit serum (1 μM, rabbit serum) of 87%. Besides, on Lp-PLA2 in human serum (setting [2]), the inhibition at 0.01 µM turned out to be 93%.
Consider `O=c1nc(SCc2ccc(F)cc2)n(Cc2nnc(CS(=O)(=O)Cc3ccccc3)n2Cc2ccc(-c3ccc(C(F)(F)F)cc3)cc2)c2c1CCC2` [Example 69, 1-((5-(benzylsulfonylmethyl)-4-((4′-(trifluoromethyl)biphenyl-4-yl)methyl)-4H-1,2,4-triazol-3-yl)methyl)-2-(4-fluorobenzylthio)-6,7-dihydro-1H-cyclopenta[d]pyrimidin-4(5H)-one], for which the inhibition at 0.1 µM on Lp-PLA2 in rabbit serum (setting [1]) is 89%; at Lp-PLA2 in human serum (human serum) it was 97%. The inhibition at 0.01 µM on Lp-PLA2 in human serum (setting [2]) is 87%.
For `O=c1nc(SCc2ccc(F)cc2)n(Cc2nnc(CO)n2Cc2ccc(-c3ccc(C(F)(F)F)cc3)cc2)c2c1CCC2` [Example 72, 2-(4-fluorobenzylthio)-1-((5-(hydroxymethyl)-4-((4′-(trifluoromethyl)biphenyl-4-yl)methyl)-4H-1,2,4-triazol-3-yl)methyl)-6,7-dihydro-1H-cyclopenta[d]pyrimidin-4(5H)-one], in that order: 73%, 91% and 65%.
Take `CN(C)Cc1nnc(Cn2c(SCc3ccc(F)cc3)nc(=O)c3c2CCC3)n1Cc1ccc(-c2ccc(C(F)(F)F)cc2)cc1` [Example 75, 1-((5-((dimethylamino)methyl)-4-((4′-(trifluoromethyl)biphenyl-4-yl)methyl)-4H-1,2,4-triazol-3-yl)methyl)-2-(4-fluorobenzylthio)-6,7-dihydro-1H-cyclopenta[d]pyrimidin-4(5H)-one]: the inhibition at 0.1 µM came to 88.3% at Lp-PLA2 in rabbit serum (setting [1]) and 97% at Lp-PLA2 in human serum (human serum). Besides, the inhibition at 0.01 µM on Lp-PLA2 in human serum (setting [2]) came out at 85%.
As for `C[N+](C)(Cc1ccc(F)cc1)Cc1nnc(Cn2c(SCc3ccc(F)cc3)nc(=O)c3c2CCC3)n1Cc1ccc(-c2ccc(C(F)(F)F)cc2)cc1` [Example 76, N-(4-fluorobenzyl)-1-(5-((2-(4-fluorobenzylthio)-4-oxo-4,5,6,7-tetrahydro-1H-cyclopenta[d]pyrimidin-1-yl)methyl)-4-((4′-(trifluoromethyl)biphenyl-4-yl)methyl)-4 H-1,2,4-triazol-3-yl)-N,N-dimethylmethanaminium bromide], the inhibition at 0.1 µM was 97% at Lp-PLA2 in rabbit serum (setting [1]), more than 90% at Lp-PLA2 in rabbit serum (setting [3]) and 100% against Lp-PLA2 in human serum (human serum). The inhibition at 0.01 µM on Lp-PLA2 in human serum (setting [2]) was 100%; on Lp-PLA2 in human serum (setting [4]), more than 80%.
For the molecule `C[N+](C)(C)Cc1nnc(Cn2c(SCc3ccc(F)cc3)nc(=O)c3c2CCC3)n1Cc1ccc(-c2ccc(C(F)(F)F)cc2)cc1` [Example 77, 1-(5-((2-(4-fluorobenzylthio)-4-oxo-4,5,6,7-tetrahydro-1H-cyclopenta[d]pyrimidin-1-yl)methyl)-4-((4′-(trifluoromethyl)biphenyl-4-yl)methyl)-4H-1,2,4-triazol-3-yl)-N,N,N-trimethylmethanaminium iodide], the values for the inhibition at 0.1 µM on Lp-PLA2 in rabbit serum (setting [1]), on Lp-PLA2 in rabbit serum (setting [3]) and on Lp-PLA2 in human serum (human serum) were 93%, more than 90% and 98%, respectively. Also, the inhibition at 0.01 µM on Lp-PLA2 in human serum (setting [2]) is 97%; at Lp-PLA2 in human serum (setting [4]), more than 80%.
Take `CCN(CC)Cc1nnc(Cn2c(SCc3ccc(F)cc3)nc(=O)c3c2CCC3)n1Cc1ccc(-c2ccc(C(F)(F)F)cc2)cc1` [Example 79, 1-((5-((diethylamino)methyl)-4-((4′-(trifluoromethyl)biphenyl-4-yl)methyl)-4H-1,2,4-triazol-3-yl)methyl)-2-(4-fluorobenzylthio)-6,7-dihydro-1H-cyclopenta[d]pyrimidin-4(5H)-one]: the inhibition at 0.1 µM on Lp-PLA2 in rabbit serum (setting [1]) was 85.3%; at Lp-PLA2 in human serum (human serum), 93%. The inhibition at 0.01 µM at Lp-PLA2 in human serum (setting [2]) is 68%.
Take `CN(Cc1ccc(F)cc1)Cc1nnc(Cn2c(SCc3ccc(F)cc3)nc(=O)c3c2CCC3)n1Cc1ccc(-c2ccc(C(F)(F)F)cc2)cc1` [Example 81, 1-((5-(((4-fluorobenzyl)(methyl)amino)methyl)-4-((4′-(trifluoromethyl)biphenyl-4-yl)methyl)-4H-1,2,4-triazol-3-yl)methyl)-2-(4-fluorobenzylthio)-6,7-dihydro-1H-cyclopenta[d]pyrimidin-4(5H)-one]: the results for the inhibition at 0.1 µM on Lp-PLA2 in rabbit serum (setting [1]), at Lp-PLA2 in rabbit serum (setting [3]) and on Lp-PLA2 in human serum (human serum) were 90%, more than 90% and 98%, respectively. The results for the inhibition at 0.01 µM at Lp-PLA2 in human serum (setting [2]) and on Lp-PLA2 in human serum (setting [4]) were 93% and more than 80%, respectively.
For the molecule `CC(C)N(C)Cc1nnc(Cn2c(SCc3ccc(F)cc3)nc(=O)c3c2CCC3)n1Cc1ccc(-c2ccc(C(F)(F)F)cc2)cc1` [Example 82, 2-(4-fluorobenzylthio)-1-((5-((isopropyl(methyl)amino)methyl)-4-((4′-(trifluoromethyl)biphenyl-4-yl)methyl)-4H-1,2,4-triazol-3-yl)methyl)-6,7-dihydro-1H-cyclopenta[d]pyrimidin-4(5H)-one], the values for the inhibition at 0.1 µM at Lp-PLA2 in rabbit serum (setting [1]) and against Lp-PLA2 in human serum (human serum) were 85% and 98%, respectively. For the same molecule, the inhibition at 0.01 µM at Lp-PLA2 in human serum (setting [2]) is 77%.
In the case of `C[C@@H]1CN(Cc2nnc(Cn3c(SCc4ccc(F)cc4)nc(=O)c4c3CCC4)n2Cc2ccc(-c3ccc(C(F)(F)F)cc3)cc2)C[C@H](C)O1` [Example 84, 1-((5-(((2S,6R)-2,6-dimethylmorpholino)methyl)-4-((4′-(trifluoromethyl)biphenyl-4-yl)methyl)-4H-1,2,4-triazol-3-yl)methyl)-2-(4-fluorobenzylthio)-6,7-dihydro-1H-cyclopenta[d]pyrimidin-4(5H)-one], the values for the inhibition at 0.1 µM on Lp-PLA2 in rabbit serum (setting [1]) and against Lp-PLA2 in human serum (human serum) were 76% and 91%, respectively. Further, at Lp-PLA2 in human serum (setting [2]), the inhibition at 0.01 µM was found to be 69%.
